Legend:
[1] = target: T1, recombinant human 5-HT6 receptor (Homo sapiens, UniProt P50406); assay: Radioligand binding, [3H]LSD competition in HEK293 cell membranes; settings: [3H]LSD displacement, pH 7.4 at 37° C., read-out: pKi for the 5-HT6 receptor (converted)
T1 construct: expressed in transfected cells
Method: (§1) The binding activity of compounds of this invention in vitro was determined as follows. Duplicate determinations of 5-HT6 ligand affinity were made by competing for binding of [^3H]LSD in cell membranes derived from HEK293 cells stably expressing recombinant human 5-HT6 receptor. Duplicate determinations of 5-HT2A ligand affinity were made by competing for binding of [^3H]Ketanserin (3-(2-(4-(4-fluorobenzoyl)piperidinol)ethyl)-2,4(1H,3H)-quinazolinedione) in cell membranes derived from CHO-Ki cells stably expressing recombinant human 5-HT2A receptor. Membranes were prepared from HEK 293 cell lines by the method described by Monsma et al., Molecular Pharmacology, Vol. 43 pp. 320-327 (1993), and from CHO-K1 cell lines as described by Bonhaus et al., Br J Pharmacol. June; 115(4):622-8 (1995).
(§2) For estimation of affinity at the 5-HT6 receptor, all determinations were made in assay buffer containing 50 mM Tris-HCl, 10 mM MgSO4, 0.5 mM EDTA, 1 mM ascorbic acid, pH 7.4 at 37° C., in a 250 microliter reaction volume. […]
(§3) Assay tubes containing [^3H] […] LSD or [^3H]Ketanserin were determined as radioactive counts per minute using Packard TopCount.
(§4) Displacement of [^3H]LSD or [^3H]Ketanserin from the binding sites was quantified by fitting concentration-binding data to a 4-parameter logistic equation: […]

[2] = target: T2, recombinant human 5-HT2A receptor (Homo sapiens, UniProt P28223); assay: Radioligand binding, [3H]Ketanserin competition in CHO-K1 cell membranes; settings: [3H]Ketanserin displacement, pH 7.4 at 32° C., read-out: pKi for the 5-HT2A receptor (converted)
T2 construct: expressed in transfected cells
Method: as §1, §2, §3, §4

T2 sequence (P28223 whole entry): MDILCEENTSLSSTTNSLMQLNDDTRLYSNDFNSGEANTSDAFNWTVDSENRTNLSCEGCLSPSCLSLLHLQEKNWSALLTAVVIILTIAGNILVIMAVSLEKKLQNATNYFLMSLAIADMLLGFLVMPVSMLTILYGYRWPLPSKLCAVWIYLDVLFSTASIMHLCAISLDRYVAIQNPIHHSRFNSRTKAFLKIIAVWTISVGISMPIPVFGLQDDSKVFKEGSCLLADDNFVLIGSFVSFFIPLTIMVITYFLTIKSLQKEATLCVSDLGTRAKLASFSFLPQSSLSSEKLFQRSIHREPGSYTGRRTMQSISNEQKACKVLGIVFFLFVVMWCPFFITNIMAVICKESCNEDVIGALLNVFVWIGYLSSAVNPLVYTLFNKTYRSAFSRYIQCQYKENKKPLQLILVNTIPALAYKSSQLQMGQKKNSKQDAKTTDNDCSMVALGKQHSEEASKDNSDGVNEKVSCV
T1 sequence (P50406 whole entry): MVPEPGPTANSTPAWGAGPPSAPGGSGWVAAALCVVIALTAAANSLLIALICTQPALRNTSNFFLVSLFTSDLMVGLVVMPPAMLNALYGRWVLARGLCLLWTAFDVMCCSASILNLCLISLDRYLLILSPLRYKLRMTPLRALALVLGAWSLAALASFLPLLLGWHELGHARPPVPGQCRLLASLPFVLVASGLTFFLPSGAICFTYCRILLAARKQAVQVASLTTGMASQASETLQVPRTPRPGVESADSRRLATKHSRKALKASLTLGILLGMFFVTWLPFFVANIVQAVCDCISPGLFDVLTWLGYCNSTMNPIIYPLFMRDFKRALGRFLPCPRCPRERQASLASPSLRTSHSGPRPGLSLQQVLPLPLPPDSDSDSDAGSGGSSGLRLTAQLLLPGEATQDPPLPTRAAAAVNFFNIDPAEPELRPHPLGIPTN

Row | Ki [2] | Compound | Ki [1]
1 |  | CNC(=O)c1cc2c(N3CCNCC3)cccc2n1Cc1cccc(F)c1 [Compound 26, 1-(3-Fluoro-benzyl)-4-piperazin-1-yl-1H-indole-2-carboxylic acid methylamide] | ~0.126 nM
2 | ~1.23 nM | Cc1cc(N2CCNCC2)c2oc(C(N)=O)c(Cc3cccc(F)c3)c2c1 [Compound 31, 3-(3-Fluoro-benzyl)-5-methyl-7-piperazin-1-yl-benzofuran-2-carboxylic acid amide] | 

— patent publication US7741326B2, “Indole and benzofuran 2-carboxamide derivatives and uses thereof” (Roche Palo Alto LLC, priority 2006, dated 2010)
